The subject of assay [1] is K. pneumoniae. Kind of assay: time required for antibiotics to hinder metabolic activity (resazurin fluorescence). The assay is classed as cell-based, Klebsiella pneumoniae. The following applies: K. pneumoniae 1×10^5 cfu/μL, antibiotic 100 μg/mL, LB media, 1 mM resazurin, 37° C., FIG. 16. As to the method: In order to choose a suitable incubation period for the susceptibility test, the time required for the antibiotics to begin inhibiting bacterial metabolic activity was investigated. […] The increase in fluorescence induced by the conversion of resazurin by metabolically active bacteria was recorded.
In general terms: Alamar Blue is a resazurin reagent that responds to reducing activity.

The subject of assay [2] is E. coli. Put plainly: standard microdilution assay with a 24 hour incubation. Conditions: absorbance at 600 nm, FIG. 5A. The assay is classed as cell-based, Escherichia coli. As to the method: (§1) An antibiotic susceptibility microdilution assay was also performed using the example device. […] After 24 hours, the absorbance at 600 nm was measured.
(§2) As this strain produces a beta lactamase, resistance to ampicillin, a beta-lactam antibiotic is expected.
For orientation: Broth dilution looks for growth in wells or tubes with falling amounts of substance.

Assay [3] relates to K. pneumoniae. Kind of assay: on-chip electrochemical (resazurin) antibiotic susceptibility assay in undiluted urine. The following applies: K. pneumoniae 100 cfu/μL in undiluted urine, 1 hour incubation at 37° C., FIG. 5D. The assay is classed as cell-based, Klebsiella pneumoniae. As to the method: (§3) The performance of the example device for electrochemical detection in urine was investigated. Human urine (BioreclamationlVT) was centrifuged at 5000 g for 5 min to remove large particulates. E. coli and K. pneumoniae were diluted to 100 cfu/μL and spiked in the urine. Samples (200 μL) were introduced at 20 μL/min. […] Air was flushed through the device to form the wells followed by FC-40 (200 μL) (Sigma Aldrich, St. Louis, Mo.). Thus the total volume of all solutions introduced is 600 μL which requires 30 min to process at 20 μL/min. The device was incubated in a water bath at 37° C. for 1 hour. 10 minutes were required to scan the leads. Thus the total time for the assay from sample introduction to readout was 1 hour and 40 minutes.
(§4) Other studies were carried out to assess the suitability of the example device to rapidly determine the antibiotic resistance profile of bacteria in undiluted urine.
(§5) E. coli (UPEC) and K. pneumoniae present at 100 cfu/μL in undiluted urine were introduced into the example device. After capture, a culture medium, resazurin, and either ampicillin or ciprofloxacin were introduced. FIGS. 5C and 5D show the electrochemical signal obtained as a function of antibiotic concentration after a 1 hour incubation at 37° C.
as §2

Assay [4] concerns K. pneumoniae. Kind of assay: standard microdilution assay with a 24 hour incubation. The following applies: FIG. 5B; for MIC90: Klebsiella pneumoniae, 24 hour incubation. The assay is classed as cell-based, Klebsiella pneumoniae. As to the method: as §1, §2
The next assay relates to E. coli (UPEC). Kind of assay: on-chip electrochemical (resazurin) antibiotic susceptibility assay in undiluted urine. The assay is classed as cell-based, Escherichia coli. As to the method: as §3, §4, §5
As this strain produces a beta lactamase, resistance to ampicillin, a beta-lactam antibiotic is expected. […]

The subject of assay [5] is E. coli. Put plainly: on-chip electrochemical antibiotic susceptibility assay in unpurified urine. The assay is classed as cell-based, Escherichia coli. The following applies: E. coli 100 cfu/μL in undiluted unpurified urine, 10 μm pre-filter, 37° C. for 1 hour, FIG. 5E. The method, then:
The performance of the example device was also investigated for electrochemical detection in unpurified urine. E. coli were diluted to 100 cfu/μL and spiked in the unpurified human urine (BioreclamationlVT). The spiked urine (200 μL) was passed through a 10 μm filter to remove large particulates and directly introduced at 20 μL/min into the chip. […] Air was flushed through the device to form the wells followed by FC-40 (Sigma Aldrich, St. Louis, Mo.). The device was incubated in a water bath at 37° C.
A series of experiments were also performed to determine the antibiotic susceptibility of bacteria in unpurified urine. […] Currents are normalized to the maximum value. Error bars represent standard error.
E. coli were spiked directly into undiluted and unpurified urine at 100 cfu/μL. The sample was passed through a 10 μm filter that removed large particulates while allowing bacteria to pass. FIG. 18 illustrates the effect of pre-filter size on recovery of bacteria spiked in undiluted urine. […] No appreciable signal change was found when using a blank control sample of unpurified urine (see FIG. 4, discussed above).

These results are taken from patent US10888864B2, “Electrochemical metabolic activity detecting device” (The Governing Council of the University of Toronto, priority 2014, dated 2021).

In brackets after ≈: the same amount, converted by molar mass.

One may read the MIC90 as an inhibitory concentration at the 90% level, which refers to growth in some studies and to a panel of isolates in others. Higher therefore signals lower susceptibility.

As to `CC1(C)S[C@@H]2[C@H](NC(=O)[C@H](N)c3ccccc3)C(=O)N2[C@H]1C(=O)O` [ampicillin], the “fluorescence signal (resazurin conversion) in presence of antibiotic” value in the assay on K. pneumoniae [1] is “fluorescence increases”. Besides, the “minimum antibiotic concentration that inhibits 90% of bacterial growth (MIC90)” value in the assay on E. coli [2] amounted to 16 mg/L. For the same compound, in the assay with K. pneumoniae [3], the “electrochemical signal with increasing antibiotic concentration / susceptibility call” value is “approximately constant”. Moreover, in the assay with K. pneumoniae [4], the “susceptibility call by standard microdilution assay” value was “resistant” and the MIC90 is more than 100 mg/L. Besides, the “effect on metabolism of E. coli (electrochemical scan)” value in the assay on E. coli (UPEC) (1 μg/mL antibiotic, E. coli in urine at 100 CFU/μL, 1 mM resazurin, 60 min at 37° C., FIG. 19B) is on record as “insufficient to inhibit the metabolism”.

For the compound `O=C(O)c1cn(C2CC2)c2cc(N3CCNCC3)c(F)cc2c1=O` [ciprofloxacin], in the assay with E. coli [5], the “antibiotic concentration at which E. coli are susceptible (electrochemical signal)” value is not below 1 µg/mL. Moreover, in the assay on E. coli [2], the “minimum antibiotic concentration that inhibits 90% of bacterial growth (MIC90)” value was “less than 0.1 μg/mL”. Further, the “electrochemical signal with increasing antibiotic concentration / susceptibility call” value in the assay on K. pneumoniae [3] was “susceptible”. Besides, in the assay on K. pneumoniae [4], the “susceptibility call by standard microdilution assay” value was “susceptible” and the MIC90 came out at 2 mg/L (≈ 6.04 µM). Also, the “antibiotic concentration at which the bacteria are susceptible (electrochemical signal)” value with E. coli (UPEC) (E. coli (UPEC) 100 cfu/μL in undiluted urine, 1 hour incubation at 37° C., FIG. 5C) was “above 1 μg/mL”.
